Structures can show the parent of a compound that is named as a salt.
Tests used:
MEK = test: Cascade assay for inhibitors of the MAP kinase pathway (In Vitro); format: biochemical
Protocol: Incorporation of ^32P into myelin basic protein (MBP) was assayed in the presence of a glutathione S-transferase fusion protein containing p44MAP kinase (GST-MAPK) and a glutathione S-transferase fusion protein containing p45MEK (GST-MEK). The assay solution contained 20 mM HEPES, pH 7.4, 10 mM MgCl2, 1-mM MnCl2, 1 mM EGTA, 50 µM [γ-^32P]ATP, 10 µg GST-MEK, 0.5 µg GST-MAPK and 40 µg MBP in a final volume of 100 µL. […] Compounds were assessed at 10 µM for ability to inhibit incorporation of ^32P.
To ascertain whether compounds were inhibiting GST-MEK or GST MAPK, two additional protocols were employed. In the first protocol, compounds were added to tubes containing GST-MEK, followed by addition of GST-MAPK, MBP and [γ-^32P]ATP.

MAP kinase = test: Whole cell MAP kinase assay (In Vivo, Cell Culture); format: cell-based
Protocol: Cells were then serum-deprived overnight. Cells were exposed to the desired concentrations of compound or vehicle (DMSO) for 30 minutes, followed by addition of a growth factor, for example, PDGF (100 ng/mL). After a 5-minute treatment with the growth factor, cells were washed with PBS, then lysed in a buffer consisting of 70 mM NaCl, 10 mM HEPES (pH 7.4), 50 mM glycerol phosphate, and 1% Triton X-100. Lysates were clarified by centrifugation at 13,000 × g for 10 minutes. Five micrograms of the resulting supernatants were incubated with 10 µg microtubule associated protein-2 (Map2) for 15 minutes at 30°C in a final volume of 25 µL containing 50 mM Tris (pH 7.4), 10 mM MgCl2, 2 mM EGTA and 30 µM [γ-^32P]ATP, Reactions were terminated by addition of Laemmli sample buffer.

Compound	IC50 (MEK) [nM]	also measured
Cc1cc(I)ccc1Nc1ccccc1C(=O)O [Example 19, 2-(4-Iodo-2-methyl-phenylamino)-benzoic acid]	524	inhibition at 30 µM (MAP kinase): 50%
Cc1cc(I)ccc1Nc1cccc(F)c1C(=O)O [Example 26, 2-Fluoro-6-(4-iodo-2-methyl-phenylamino)-benzoic acid]	2610	inhibition at 30 µM (MAP kinase): 50%
Cc1cc(I)ccc1Nc1c(F)cc(C(=O)O)c(F)c1F [Example 22, 2,3 ,5 -Trifluoro-4-(4-iodo-2-methyl-phenylamino)-benzoic acid]	1580	inhibition at 30 µM (MAP kinase): 30%
Cc1cc(I)ccc1Nc1cc([N+](=O)[O-])ccc1C(=O)O [Example 30, 2-(4-Iodo-2-methyl-phenylamino)-4-nitro-benzoic acid]		In Vitro % Inhibition (MEK; compounds assessed at 10 µM): 105%; IC50 (MAP kinase): 10000 nM
Cc1cc(I)ccc1Nc1c(C(=O)O)cc(F)c(F)c1F [Example 2, 3,4,5-Trifluoro-2-(4-iodo-2-methyl-phenylamino)-benzoic acid]	14	IC50 (MAP kinase): 3000 nM
C=CCNC(=O)c1cc(Cl)ccc1Nc1ccc(I)cc1C [Example 193, N-Allyl-5-chloro-2-(4-iodo-2-methyl-phenylamino)-benzamide]	2900	
Cc1cc(I)ccc1Nc1ccc(Br)cc1C(N)=O [Example 38, 5-Bromo-2-(4-iodo-2-methyl-phenylamino)-benzamide]	412	
Cc1cc(I)ccc1Nc1c(C(=O)NN2CCN(C)CC2)cc(Br)c(F)c1F [Example 222, 5-Bromo-3,4-difluoro-2-(4-iodo-2-methyl-phenylamino)-N-(4-methyl-piperazin-1-yl)-benazmide]	85	
N-(2,3-Dihydroxy-propyl)-4-fluoro-2-(4-iodo-2-methyl-phenylamino)-benzamide [Example 57]	399	
O=C(O)c1cc([N+](=O)[O-])ccc1Nc1ccc(I)cc1F [Example 12, 2-(2-Fluoro-4-iodo-phenylamino)-5-nitro-benzoic acid]	135	
Cc1cc(I)ccc1Nc1ccccc1-c1nnn[nH]1 [Example 208, (4-Iodo-2-methyl-phenyl)-[2-(1H-tetrazol-5-yl)-phenyl]amine]	1220	
Cc1cc(I)ccc1Nc1cc(F)ccc1C(=O)NN [Example 224, 4-Fluoro-2-(4-iodo-2-methyl-phenylamino)-benzoic acid hydrazide]	28	
Cc1cc(I)ccc1Nc1cc(F)ccc1C(=O)N(C)C [Example 36, 4-Fluoro-2-(4-iodo-2-methyl-phenylamino)-N,N-dimethyl-benzamide]	129	
COC(=O)c1c(F)c(F)c(N2CCN(C)CC2)c(F)c1Nc1ccc(I)cc1C [Example 221, 2,3,5-Trifluoro-6-(4-iodo-2-methyl-phenylamino)-4-(4-methyl-piperazin-1-yl)-benzoic acid methyl ester dihydrofluoride salt]	2	
Cc1cc(Br)ccc1Nc1cc(F)ccc1C(=O)O [Example 13, 2-(4-Bromo-2-methyl-phenylamino)-4-fluoro-benzoic acid]	178	
O=C(O)c1cc(Cl)ccc1Nc1ccc(I)cc1Cl [Example 5, 5-Chloro-2-(2-chloro-4-iodo-phenylamino)-benzoic acid]	66	
Cc1cc(I)ccc1Nc1cc(F)ccc1CO [Example 49, 4-Fluoro-2-(4-iodo-2-methyl-phenylamino)-benzyl alcohol]	418	IC50 (MAP kinase): 3000 nM
Cc1cc(I)ccc1Nc1cc(F)ccc1C(N)=O [Example 33, 4-Fluoro-2-(4-iodo-2-methyl-phenylamino)-benzamide]	52	

Compound	IC50 (MEK) [nM]	also measured
O=C(O)c1cc([N+](=O)[O-])ccc1Nc1ccc(I)cc1Br [Example 14, 2-(2-Bromo-4-iodo-phenylamino)-5-nitro-benzoic acid]	179	
Cc1cc(I)ccc1Nc1ccc(Cl)cc1C(=O)O [Example 6, 5-Chloro-2-(4-iodo-2-methyl-phenylamino)-benzoic acid]	71	
Cc1cc(I)ccc1Nc1ccc(F)cc1C(=O)N(C)c1ccccc1 [Example 194, 5-Fluoro-2-(4-iodo-2-methyl-phenylamino)-N-methyl-N-phenyl-benzamide]	4950	
Cc1cc(I)ccc1Nc1c(C(=O)NN(C)C)cc(Br)c(F)c1F [Example 223, 5-Bromo-3,4-difluoro-2-(4-iodo-2-methyl-phenylamino)-benzoic acid N',N'-dimethyl-hydrazide]	43	
Cc1cc(I)ccc1Nc1c(C(=O)O)cc(Br)c(F)c1F [Example 4, 5-Bromo-3,4-difluoro-2-(4-iodo-2-methyl-phenylamino)-benzoic acid]	5	IC50 (MAP kinase): 1000 nM
Cc1cc(I)ccc1Nc1c(F)cccc1C(=O)O [Example 16, 3-Fluoro-2-(4-iodo-2-methyl-phenylamino)-benzoic acid]	323	
Cc1cc(I)ccc1Nc1ccc(Br)cc1C(=O)N(C)C [Example 48, 5-Bromo-2-(4-iodo-2-methyl-phenylamino)-N,N-dimethyl-benzamide]	1940	
CCCNC(=O)c1ccc(F)cc1Nc1ccc(I)cc1C [Example 41, 4-Fluoro-2-(4-iodo-2-methyl-phenylamino)-N-propyl-benzamide]	872	
CNC(=O)c1ccc(F)cc1Nc1ccc(I)cc1C [Example 34, 4-Fluoro-2-(4-iodo-2-methyl-phenylamino)-N-methyl-benzamide]	98	
CCN(CC)C(=O)c1ccc(F)cc1Nc1ccc(I)cc1C [Example 43, N,N-Diethyl-4-fluoro-2-(4-iodo-2-methyl-phenylamino)-benzamide]	> 1000	
Cc1cc(Br)ccc1Nc1c(C(=O)O)ccc(F)c1F [Example 15, 2-(4-Bromo-2-methyl-phenylamino)-3,4-difluoro-benzoic acid]	194	
5-Bromo-3,4-difluoro-2-(4-iodo-2-methyl-phenylamino)-N-(2-piperidin-1-yl-ethyl)-benzamide [Example 55]	114	
Cc1cc(I)ccc1Nc1ccc(Cl)cc1C(=O)NCC(=O)O [Example 40]	651	
Cc1cc(I)ccc1Nc1ccc([N+](=O)[O-])cc1C(=O)O [Example 11, 2-(4-Iodo-2-methyl-phenylamino)-5-nitro-benzoic acid]	128	
Nc1c([N+](=O)[O-])cc(C(=O)O)c(Nc2ccc(I)cc2Cl)c1F [Example 211, 4-Amino-2-(2-chloro-4-iodo-phenylamino)-3-fluoro-5-nitro-benzoic acid]	> 100	
Cc1cc(I)ccc1Nc1ccc(Br)cc1C(=O)NCCO [Example 188, 5-Bromo-N-(2-hydroxy-ethyl)-2-(4-iodo-2-methyl-phenylamino)-benzamide]	771	
Cc1cc(I)ccc1Nc1c(C(=O)O)ccc(F)c1F [Example 3, 3,4-Difluoro-2-(4-iodo-2-methyl-phenylamino)-benzoic acid]	11.1	IC50 (MAP kinase): 10000 nM
